From article PMC11120720, “Linking Variability in Phytochemical Composition with Safety Profile of Thymus carnosus Boiss. Extracts: Effect of Major Compounds and Evaluation of Markers of Oxidative Stress and Cell Death” (International Journal of Molecular Sciences, 2024)
Where two headings read alike, the source gives them in different places.

Columns and labels:
Caco-2 cells [1] = assay: Cell cycle arrest (PI, flow cytometry), Caco-2; type: cell-based; conditions: compound 50 µM, 24 h
Protocol: (§1) The cells were then equally divided for each assay.
(§2) Cell cycle arrest assessment was performed as described in [1]. Cells were processed as described above until cell detachment and centrifuged, after which the second washing step was performed with ice-cold PBS (0 °C). After centrifugation, the supernatant was discarded, and cells were fixed with 500 µL of ethanol:PBS solution (70:30, % v/v, previously cooled at −20 °C) for at least 4 h at −20 °C. After fixation, two washing cycles were performed: the first with ice-cold PBS (0 °C) and the second with room-temperature PBS, followed by the addition of 200 µL of a PBS solution containing PI (50 µg/mL), RNAse A (50 µg/mL), and Triton X-100 (0.1%). Cells were incubated for 30 min at 37 °C, and then cells were washed once with PBS to remove the staining solution. After resuspension in PBS, the data were acquired.

[2] = system: HCT-116 human colorectal carcinoma cells; conditions: cited from earlier work
HepG2 cells [3] = assay: Annexin V-FITC/PI apoptosis/necrosis, HepG2; type: cell-based, human; conditions: compound 50 µM, 24 h
Protocol: as §1
(§3) For the assessment of apoptotic/necrotic cell death, an Annexin V-FITC (Thermo Fisher Scientific, Waltham, MA, USA) and propidium iodide (PI; Merck, Darmstadt, Germany) double-staining assay was used to evaluate the apoptotic/necrotic cell death induced by T. carnosus extracts and by individual phytochemicals, as described previously. Briefly, after detachment and washing, the supernatant was discarded, and 200 µL of Annexin V-FITC (1:200 dilution in Annexin-binding buffer [10 mM HEPES sodium salt, 150 mM NaCl, 5 mM KCl, 5 mM MgCl2, and 1.8 mM CaCl2; pH = 7.4]) was added. Cells were incubated for 20 min (room temperature, in the dark). After incubation, 5 µL of propidium iodide (PI; 50 µg/mL) was added, the cells were incubated for 5 min on ice (in the dark), and the data were acquired.

HepG2 cells [4] = assay: Mitochondrial membrane potential (JC-1, flow cytometry), HepG2; type: cell-based, human; conditions: compound 50 µM, 24 h
Protocol: (§4) Flow cytometry was used to analyze the effect of T. carnosus extracts on intracellular ROS, modulation of mitochondrial membrane potential (MMP), cell cycle arrest, and apoptotic/necrotic cell death induction.
(§5) Both one- and two-color assays were performed using a BD Accuri™ C6 cytometer (Becton Dickinson, Franklin Lakes, NJ, USA), and 10,000 gated events were collected from each sample [1]. For flow cytometry assays, cells were handled as described previously but seeded at a density 5 × 10^4 cells/mL (750 μL/well) in 12-well plates. Caco-2 and HepG2 cells were incubated for 24 h with the extracts (100 µg/mL) or individual phytochemicals (50 µM) diluted in FBS-free culture media h. After incubation, test solutions were removed; the cells were washed with PBS and detached from the plates using trypsin-EDTA. Once transferred to centrifuge tubes, the cells were centrifuged (bench micro-centrifuge; 3000 rpm; 3 min), the supernatant was discarded, and a new wash cycle was performed. The cells were then equally divided for each assay. A negative control was used in all assays consisting of nonexposed cells incubated only with culture media.
(§6) Mitochondrial membrane potential (MMP) was evaluated using 5,5″,6,6″-tetrachloro-1,1″,3,3″-tetraethylbenzimidazolylcarbocyanineiodide (JC-1). Cells were processed as described for DCFDA but incubated with 200 µL of JC-1 (2 µM, in FBS-free DMEM) for 20 min (37 °C, in the dark).

[5] = Alamar Blue cell viability assay, Caco-2; type: cell-based, human; conditions: human, Caco-2
Protocol: (§7) The safety profile of T. carnosus AD and HE extracts was evaluated in Caco-2 and HepG2 cells using an Alamar Blue® (Invitrogen; Alfagene, Lisboa, Portugal) assay. An initial screening was performed for all extracts at concentrations ranging between 100 and 1000 µg/mL. Due to the higher toxicity of the HE extracts, which was previously described for various extracts of Thymus species using the same extraction methods (e.g., T. mastichina and Thymus zygis), a different set of concentrations was used for the HE extracts (between 100 and 300 µg/mL for Caco-2 cells and 50 and 150 µg/mL for HepG2 cells). Figure 1 presents the data related to the cell viability assays in Caco-2 (panels A–E) and HepG2 cells (panels F–J) exposed to T. carnosus extracts, as indicated.
(§8) The safety profile of T. carnosus extracts was assessed in Caco-2 and HepG2 cells. Caco-2 (human colon adenocarcinoma cell line) were obtained from CLS (Cell Lines Service, Eppelheim, Germany), and HepG2 (human hepatocellular carcinoma cell line) were obtained from ATCC (American Type Culture Collection, Manassas, VA, USA).
(§9) Cell culture maintenance, handling, subculturing, and seeding were performed as described by Silva et al., 2020 [5], and cell viability was assessed using an Alamar Blue® assay, as described by Andreani et al., 2014 [64]. Concentrations ranged between 100 and 1000 µg/mL for AD extracts in both cell lines and 100 to 300 µg/mL or 50 to 150 µg/mL for HE extracts in Caco-2 and HepG2 cells, respectively. The effect of individual compounds on cell viability was assessed for concentrations ranging from 50 to 300 µM. All test solutions were prepared by diluting the samples in FBS-free culture media from the stock solutions described in Section 3.2, just prior to being used.
(§10) The results are presented as mean ± SD of at least three independent assays. The calculation of IC50 values was performed as described by Silva et al., 2020 [5]. Data analysis, graphical design, and statistical analysis were performed using Microsoft Office Excel (Professional Plus 2019; Microsoft Corporation, Washington, DC, USA) and GraphPad Prism (Version 8; GraphPad Software Inc., San Diego, CA, USA). Flow cytometry data analysis was performed using BD Accuri™ C6 Software, version 1.0.264.21 (Becton Dickinson, San Diego, CA, USA).

Caco-2 cells [6] = assay: Alamar Blue cell viability assay, Caco-2; type: cell-based, human; conditions: for IC50: Homo sapiens, Caco-2
Protocol: as §7, §8, §9, §10

[7] = Alamar Blue cell viability assay, HepG2; type: cell-based, human; conditions: human
Protocol: as §7, §8, §9, §10

HepG2 cells [8] = assay: Alamar Blue cell viability assay, HepG2; type: cell-based, human; conditions: for IC50: Homo sapiens, HepG2
Protocol: as §7, §8, §9, §10

HepG2 cells [9] = assay: Cell cycle arrest (PI, flow cytometry), HepG2; type: cell-based, human; conditions: compound 50 µM, 24 h
Protocol: as §1, §2

HepG2 cells [10] = assay: Intracellular ROS (DCFDA, flow cytometry), HepG2; type: cell-based, human; conditions: compound 50 µM, 24 h
Protocol: as §1
(§11) Intracellular ROS level assessment was performed as described by Silva et al., 2022 [65], using dichlorodihydrofluorescein diacetate (DCFDA). Cells obtained in the previous step were centrifuged, the supernatant discarded, and 200 µL of DCFDA (10 µM in FBS-free DMEM) was added. Cells were incubated for 45 min (37 °C, in the dark), washed to remove excess probe, and resuspended in PBS for data acquisition.

HepG2 cells [11] = conditions: cited from earlier work
Caco-2 cells [12] = conditions: cited from earlier work
[13] = system: colorectal cancer cell line CT26; parameters: method as in PMID 29459827; conditions: cited from earlier work
Caco-2 cells [14] = assay: Intracellular ROS (DCFDA, flow cytometry), Caco-2; type: cell-based; conditions: compound 50 µM, 24 h
Protocol: as §1, §11

Caco-2 cells [15] = assay: Annexin V-FITC/PI apoptosis/necrosis, Caco-2; type: cell-based; conditions: compound 50 µM, 24 h
Protocol: as §1, §3

[16] = system: human small cell lung cancer cells (SCLCs); parameters: method as in doi:10.4314/tjpr.v14i8.11; conditions: 50 and 100 µM; cited from earlier work
Caco-2 cells [17] = conditions: compound 50 µM, 24 h
Protocol: as §4, §5, §6

[18] = system: DLD-1, Dukes-type C colorectal adenocarcinoma; conditions: cited from earlier work
[19] = system: HONE-2 nasopharyngeal carcinoma cells; parameters: method as in PMID 31981746; conditions: 50 µM; cited from earlier work
[20] = system: human prostate carcinoma (DU 145) cells; conditions: cited from earlier work
HeLa cells = conditions: cited from earlier work
[21] = system: human lung adenocarcinoma (H1975) cells; conditions: cited from earlier work
[22] = system: NPC-39 nasopharyngeal carcinoma cells; parameters: method as in PMID 31981746; conditions: 50 µM; cited from earlier work
[23] = system: human lung cancer (A549) cells; conditions: cited from earlier work
[24] = system: human prostate cancer cells; parameters: method as in PMID 29898731; conditions: 40 µM; cited from earlier work
[25] = system: murine melanoma cells (B16-BL6 cells); parameters: method as in PMID 15538571; conditions: cited from earlier work
[26] = 24 h exposure, read-out: IC50 (µM) - Caco-2 cells: 24 h
[27] = 48 h exposure, read-out: IC50 (µM) - Caco-2 cells: 48 h
[28] = 24 h exposure, read-out: IC50 (µM) - HepG2 cells: 24 h
[29] = 48 h exposure, read-out: IC50 (µM) - HepG2 cells: 48 h

## O=C(/C=C/c1ccc(O)c(O)c1)O[C@H](Cc1ccc(O)c(O)c1)C(=O)O [Rosmarinic acid]
Caco-2 cells [1]
  cell cycle effect, Caco-2: cell cycle arrest in G0/G1
[2]
  cell cycle effect, HCT-116: cell cycle arrest in G0/G1
HepG2 cells [3]
  cell death induction, HepG2: necrosis in HepG2 cells
HepG2 cells [4]
  MMP modulation, HepG2: slight decrease in MMP
[5]
  viability at 24 h, 300 µM: 87.8%
  viability at 48 h, 300 µM: 72.6%
Caco-2 cells [6]; [26]
  IC50: > 300 µM
Caco-2 cells [6]; [27]
  IC50: > 300 µM
[7]
  viability at 24 h, 300 µM: 65.2%
HepG2 cells [8]; [28]
  IC50: > 300 µM
HepG2 cells [8]; [29]
  IC50: > 300 µM
HepG2 cells [9]
  cell cycle effect, HepG2: induced cell cycle arrest in both cell lines but in different phases
HepG2 cells [10]
  change in intracellular ROS, HepG2: significant (p < 0.05) increase in intracellular HepG2 ROS levels
HepG2 cells [11]
  concentrations giving significant reduction in HepG2 cell viability: ≥ 34.69 µM
HepG2 cells [11]; read-out: IC50 (48 h), HepG2 cells, 48 h
  IC50: 91 µM
Caco-2 cells [12]; Caco-2
  concentrations that did not reduce Caco-2 cell viability: ≤ 90 µM
[13]
  cell cycle effect, CT26: cell cycle arrest in G0/G1
Caco-2 cells [14]
  change in intracellular ROS, Caco-2: neither RA nor eriodictyol induced ROS increases
Caco-2 cells [15]
  cell death induction, Caco-2: significant increase in both late apoptosis and necrosis

## O=C(/C=C/c1ccc(O)c(O)c1/C=C/c1ccc(O)c(O)c1)O[C@H](Cc1ccc(O)c(O)c1)C(=O)O [Salvianolic acid A, salvianolic acid A]
[2]
  concentrations with no or low cytotoxicity, HCT-116: up to 50 µM
[16]
  MMP modulation, SCLC cells: loss of MMP
Caco-2 cells [17]
  MMP modulation, Caco-2: significant loss of MMP
[18]
  concentrations with no or low cytotoxicity, DLD-1: up to 50 µM
[5]
  viability at 48 h, 300 µM: 54.4%
Caco-2 cells [6]; [26]
  IC50: > 300 µM
Caco-2 cells [6]; [27]
  IC50: > 300 µM
HepG2 cells [8]; [28]
  IC50: > 300 µM
HepG2 cells [8]; [29]
  IC50: > 300 µM
[19]
  effect on cell viability, HONE-2: no reduction in cell viability
[20]
  IC50: ≤ 30 µM
HeLa cells
  IC50: ≤ 30 µM
[21]
  IC50: ≤ 30 µM
[22]
  effect on cell viability, NPC-39: no reduction in cell viability
[23]
  IC50: ≤ 30 µM

## O=c1c(O)c(-c2ccc(O)c(O)c2)oc2cc(O)cc(O)c12 [Quercetin, quercetin]
Caco-2 cells [1]
  cell cycle effect, Caco-2: cell cycle arrest in the S and G2/M phases
HepG2 cells [3]
  % of healthy HepG2 cells: ~ 76%
  cell death induction, HepG2: shift in the cell population to both early and late apoptosis
HepG2 cells [4]
  MMP modulation, HepG2: did not induce variations in the MMP
[24]
  MMP modulation, prostate cancer cells: loss of MMP
[5]; 50 µM, 48 h, Figure 2E
  viability at 48 h, 50 µM: 77.6%
[5]; 50-100 µM, 48 h, read-out: cell viability, Caco-2
  viability at 48 h: ≥ 68%
[5]; concentrations up to 200 µM, 24 h, Figure 2E
  viability at 24 h: ~90%
Caco-2 cells [6]; 24 h
  concentrations giving significant decrease in Caco-2 cell viability: ≥ 75 µM
Caco-2 cells [6]; [26]
  IC50: > 300 µM
Caco-2 cells [6]; [27]
  IC50: 109 µM
[7]; HepG2 cells, 50-100 µM, 48 h
  viability at 48 h: ≤ 20%
HepG2 cells [8]; 50 µM = lowest concentration tested, Figure 2M
  concentrations reducing HepG2 cell viability: ≥ 50 µM
HepG2 cells [8]; [28]
  IC50: 141 µM
HepG2 cells [8]; [29]
  IC50: 10.1 µM
HepG2 cells [9]
  cell cycle effect, HepG2: cell cycle arrest was observed in the G0/G1 phase
HepG2 cells [10]
  change in intracellular ROS, HepG2: significant increase in ROS
HepG2 cells [11]; 24 h of exposure
  concentrations reducing HepG2 cell viability: ≥ 33 µM
Caco-2 cells [12]; 50 µM, 48 h
  cell viability, Caco-2: 75–80%
Caco-2 cells [12]; 100 µM, 24 h
  effect on Caco-2 cell viability: no changes in cell viability
[25]
  MMP modulation, B16-BL6: loss of MMP
Caco-2 cells [15]
  % of healthy Caco-2 cells: ~ 86%
  cell death induction, Caco-2: shift in the cell distribution into late apoptosis
